Key:
Porcine buccal mucosa = experiment: Loxapine diffusion through Porcine buccal mucosa (Franz cell); details: penetration enhancer in loxapine oral film, permeation through the mucosa
Experimental: FIG. 1 graphically depicts 1 oxapine film diffusion through Porcine buccal mucosa (48-hrs-old unfrozen fresh mucosa) (Franz cell 1.76 cm2; 37° C.); saliva pH 6.8.
FIG. 2 graphically depicts 1 oxapine film diffusion through Porcine buccal mucosa (26-hrs-old unfrozen fresh mucosa) (Franz cell 1.76 cm2; 37° C.); saliva pH 6.8.
FIG. 3 graphically depicts 1 oxapine Solutions-diffusion through Porcine buccal mucosa (fresh mucosa kept at 4C for 48 hours) (Franz cell 1.76 cm2; 37° C.); saliva pH 6.8.
These penetration enhancers include sulphoxides (dimethylsulphoxide, decylmethyl sulfoxide), azones (laurocapram), pyrrolidones (2pyrrolidone, 2P), alcohols/alkanols (ethanol or decanol), glycols (propylene glycol), surfactants (anionic, sodium lauryl sulfate, sodium decyl sulfate), (Nonionic, Tween, PLE), (Cationic, chitosan, cetylpyridinium chloride), terpenes (1,8-cineole, menthol, and menthone, D-limonene), fatty acids (oleic acid, sodium caprate), and bile salts (sodium deoxycholate, sodium deoxyglycocholate).

[1] = at or near neutral pH; cited from earlier work

Row | Compound | Effect on loxapine absorption/permeation (Porcine buccal mucosa) | other results
1 | CCCCCCCCCCCCOS(=O)(=O)[O-].[Na+] [Sodium lauryl sulphate (SLS), Sodium lauryl sulphate] | – | Effect on loxapine absorption/permeation (Porcine buccal mucosa; listed as SLS, sulphate): reduce absorption/permeation; Effect on loxapine absorption/permeation (Porcine buccal mucosa; sulphate): negative effect(−)
2 | CN1CCN(C2=Nc3ccccc3Oc3ccc(Cl)cc32)CC1 [loxapine, 2-chloro-11-(4-methylpiperazin-1-yl) dibenzo[b,f] [1,4] loxazepine] | – | solubility of loxapine [1]: especially low
3 | O=C(O)CN(CCN(CC(=O)O)CC(=O)O)CC(=O)O.[Ca].[Na].[Na] [Ethylenediaminetetraacetic acid calcium disodium] | no effect | –
4 | C=C(C)[C@@H]1CC=C(C)CC1 [(S)-(−)-Limonene] | positif effect (+) | –
5 | CCCCCCCCCCCCCCCC[n+]1ccccc1 [Cetylpyridinium chloride] | no effect | –
6 | Sodium deoxycholate | positif effect (+) | –

— patent US20230248660A1 (Intelgenx Corp., priority 2016, published 2023)
